Source: US20090325863A1, “Somatostatin analogs and IGF-I inhibition for breast cancer prevention” (priority 2008, published 2009)
“Also recorded” adds a separate entry of the source. Marks after values point to notes of the source that are not given here. *1 amine or outer side, *2 acyl side, *3 side chain or, on linkers, in order; H or OH if unused. Where a SMILES comes first, the peptide text is derived from it. Side-chain parts run from the residue outwards. [ ]: non-standard residue; d: D form. The star is where a group is joined. Ethylenediamine = C(CN[*:2])N[*:1]; Hyp = O=C(O)[C@@H]1C[C@@H](O)CN1; Phg = N[C@H](C(=O)O)c1ccccc1; CO = O=C([*:1])[*:2]; Bn = c1ccc(C*)cc1

What was measured:
[1] = tested on: mammary hyperplasia induced by hGH and E2; assay: Mammary hyperplasia model induced by hGH and E2, counts in histological sections; assay type: in vivo, rat; conditions: for Mild# (mild hyperplasia): GH + E2 control 4.2 ± 0.6, E2 1.9 ± 0.2; for Moderate# (moderate hyperplasia): GH + E2 control 5.0 ± 0.7, E2 0; for Florid# (florid hyperplasia): GH + E2 control 9.6 ± 0.1, E2 0; for Total# (total number of glands): hypophysectomized, oophorectomized female rats, hGH 600 μg + E2, 7 days, GH + E2 control 71.9 ± 5.4, E2 42.2 ± 1.4; for Florid#: GH + E2 control 10 ± 0.7
From the text: To test whether SOM230, a drug that inhibits IGF-I action on the breast, was effective, we implemented a model of hyperplasia and then determined whether the hyperplasia could be inhibited by SOM230. We administered human growth hormone (600 mcg in alzet pumps) for a week, and gave this together with estradiol (an estrogen). At the end of 7 days florid hyperplasia developed. Mammary hyperplasia was modeled by treating hypophysectomized, oophorectomized female rats with high doses human growth hormone (hGH) (600 μg in Alzet pumps) and follicular phase concentrations of estradiol (E2) administered in silastic capsules for 7 days. In the absence of hGH, these animals would not undergo mammary development. In animals receiving E2 alone, there was virtually no hyperplasia. When hGH was added to E2 there were more glands (42.2±1.4 vs. 71.9±5.4, E2 vs. E2+hGH, respectively). There was no florid hyperplasia with E2 treatment. When hGH was given also, 26.6% of the glands were hyperplastic, with 50% of those being floridly hyperplastic, 7% moderate hyperplasia and 5.9% mild hyperplasia. […] This is shown in histological sections (FIG. 1), graphically (FIG. 2) and in tabular form below (TABLE 1).
Background: Antiestrogens or aromatase inhibitors are used for breast cancer chemoprevention. These treatments cause unpleasant side effects including hot flashes and vaginal dryness. We have previously shown that IGF-I is required to permit estrogen and progesterone action in the mammary gland. […] Menopausal symptoms would not likely to occur with SOM230 since estrogen is not lowered. Material and Methods: We have approached this issue in several ways. 1) We developed a model of hyperplasia in hypophysectomized and oophorectomized female rats. Hyperplasia was induced by treatment with 600 mcg hGH and follicular phase concentrations of estradiol. Hyperplasia was assessed histologically in sections of mammary gland. 2) To assess translatability to humans we assessed cell proliferation and apoptosis in normal human breast from reduction mammoplasties and samples of usual hyperplasia. 3) We also determined availability of SST receptors in samples of atypical ductal hyperplasia and DCIS, and 4) We have begun to determine whether SOM230 will prevent hyperplasia in humans at risk for breast cancer as it does in rats.
The degree of hyperplasia was analyzed in 3 histological sections at different levels in 3 test animals given GH+E2. The different types of hyperplasia were counted. For example, the total mean number of ducts was 88.3. Of those ducts, there were 19.7 or 22.3% of total ducts that were hyperplastic. The breakdown was a mean of 10 ducts with florid hyperplasia (lumen is distended and mostly obliterated by epithelial cells), a mean of 5.3 ducts with moderate hyperplasia (an increase in cell layers to >4 cells thick), and a mean of 4.4 characterized as mild hyperplasia (no more than 4 cell thickness).
There were 4 additional treatment groups and one E2 treated control group.

[2] = tested on: pYIRS-1 (phosphorylated IRS-1); assay: pYIRS-1 staining in glands and mast cells of normally developing rats; assay type: in vivo, rat; conditions: 28 day old female rats treated from day 21
From the text: We have found for the first time that mast cells play a role in normal mammary development. Mast cells appear around developing mammary gland structures in rats. […] The same animals when they were 21 days old were given SOM230. […] The mast cells are found directly around the developing glands in the stromal compartment.
That these mast cells are directly stimulated by IGF-I is supported by the observation that phosphorylated IRS-1 was reduced in mast cells on exposure to SOM230. The action of SOM230 in mammary gland is therefore one of IGF-I action inhibition. […] The one on the right panel is from an animal treated with SOM230. Not only was pYIRS-I reduced in glands but mast cells were reduced as well.

mammary development = conditions: rats; Ruan et al (2006); cited from earlier work

NCCCC[C@@H]1NC(=O)[C@@H](Cc2c[nH]c3ccccc23)NC(=O)[C@H](c2ccccc2)NC(=O)[C@@H]2C[C@@H](OC(=O)NCCN)CN2C(=O)[C@H](Cc2ccccc2)NC(=O)[C@H](Cc2ccc(OCc3ccccc3)cc2)NC1=O [SOM230] (cyclo([Hyp]([CO-Ethylenediamine])[Phg][dW]KY(Bn)F))
number of areas of florid hyperplasia ([1]; Example 3, from 18.9±1.3 with hGH and E2 (p<0.001)): 7.5±0.5 | Mild# (mild hyperplasia) ([1]; Table 1, 7 days): 3.0±0.4 | Mild# (mild hyperplasia) ([1]; Table 1, 7 days, listed as SOM): 3.0 ± 0.4 | Moderate# (moderate hyperplasia) ([1]; Table 1, 7 days): 3.8±0.4 | Moderate# (moderate hyperplasia) ([1]; Table 1, 7 days, listed as SOM): 3.8 ± 0.4 | Florid# (florid hyperplasia) ([1]; Table 1, 7 days): 0.8±0.2 | Florid# (florid hyperplasia) ([1]; Table 1, 7 days, listed as SOM): 0.8 ± 0.2 | DH# (hyperplastic structures) ([1]; Table 1, 7 days, GH + E2 control 18.9 ± 1.3, E2 1.9 ± 0.2): 7.5 ± 0.5^b | Total# (total number of glands) ([1]; Table 1): 46.0±2.8 | Total# (total number of glands) ([1]; Table 1, listed as SOM): 46.0 ± 2.8 | Total# ([1]; Table 3, SOM230 30 mcg/h/kg, Octreotide 30 mcg/hr/kg, Tamoxifen 30 mg/21 day release pellet, GH + E2 control 88.3 ± 6.3): 61.4 ± 7.0 | Mild# ([1]; Table 3, same doses, GH + E2 control 4.4 ± 0.6): 3.3 ± 0.3 | Moderate# ([1]; Table 3, same doses, GH + E2 control 5.3 ± 0.6): 3.8 ± 0.4 | Florid# ([1]; Table 3, same doses): 1.7 | Florid# ([1]; Table 3, same doses, listed as SOM): 1.7 ± 0.6 | DH# ([1]; Table 3, same doses, GH + E2 control 19.7 ± 1.5): 8.8 ± 0.7^b | hyperplasia / breast hyperplastic lesions (in words) ([1]; given together with hGH and estradiol, 7 days): hyperplasia was significantly inhibited; also recorded: reduction in the number and size of breast hyperplastic lesions; also recorded: reduction in hyperplasia | pYIRS-1 in glands and mast cells [2]: inhibited; also recorded: reduced | IRS-1 phosphorylation in the mammary gland (mammary development): reduction in IRS-1 phosphorylation | mammary development (mammary development): prevents mammary development
